Data as given in US20160166560A1, “Urea Compounds and Their Use as FAAH Enzyme Inhibitors” (BIAL-PORTELA & Cª, S.A., priority 2013, published 2016).
Where a name gives a salt, the structure may show the parent alone.

What was measured:
[1] = molecular target: T1, FAAH (Mus musculus, UniProt O08914); experiment: In vitro/ex vivo FAAH activity determination in liver after intra-tracheal instillation; design: Liver and brain fragments were removed and processed for enzymatic activity determination; from tissue; host or cells: mouse liver fragment homogenate; species or system male NMRI mice; conditions: remaining enzymatic activity vs controls, 1 mg/kg intra-tracheal instillation, sacrificed after 8 h
T1 sequence (O08914 1-579): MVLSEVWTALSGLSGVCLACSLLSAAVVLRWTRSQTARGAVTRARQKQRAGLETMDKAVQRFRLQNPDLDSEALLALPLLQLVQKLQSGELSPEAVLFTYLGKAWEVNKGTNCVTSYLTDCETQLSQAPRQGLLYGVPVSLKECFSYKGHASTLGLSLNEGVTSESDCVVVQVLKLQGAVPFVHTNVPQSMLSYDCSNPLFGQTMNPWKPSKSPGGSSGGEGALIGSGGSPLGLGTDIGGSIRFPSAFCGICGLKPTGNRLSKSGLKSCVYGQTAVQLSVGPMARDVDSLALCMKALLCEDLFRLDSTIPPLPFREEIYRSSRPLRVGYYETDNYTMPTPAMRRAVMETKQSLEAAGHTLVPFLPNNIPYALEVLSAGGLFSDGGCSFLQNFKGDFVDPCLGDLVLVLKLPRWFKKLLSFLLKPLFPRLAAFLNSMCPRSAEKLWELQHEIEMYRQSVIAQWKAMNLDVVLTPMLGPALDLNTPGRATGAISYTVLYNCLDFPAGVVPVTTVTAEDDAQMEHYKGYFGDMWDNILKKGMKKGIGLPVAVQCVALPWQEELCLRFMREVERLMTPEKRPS
Method: (§1) To evaluate the selectivity of test compounds in inhibiting FAAH activity, male NMRI mice were administrated following instillation with 1 mg/kg compound and were sacrificed after 8 h treatment. Liver and brain fragments were removed and processed for enzymatic activity determination.
(§2) FAAH activity was measured as the amount of ^3H-ethanolamine formed, by liquid scintillation counting, from the hydrolysis of the substrate anandamide (AEA, labeled with ^3H on the ethanolamine part of the molecule). The percentage of remaining enzymatic activity was calculated in respect to controls and after blank subtraction. Therefore, a low value for the test compounds indicates a strong inhibitor.
(§3) Male NMRI mice (body weight range: 25-35 g) were obtained from Harlan Laboratories (Barcelona, Spain). Animals were kept 10 per cage, under controlled environmental conditions (12 hr light [8 am]/12 hr dark [8 pm]cycle; room temperature 22±1° C.). Food and tap water were allowed ad libitum. Animals were habituated to the animal facilities at least for a week prior to experiments. The experiments were all carried out during daylight hours.
(§4) Animals were fasted overnight before administration of compounds. […] After administration the animals were given atipamezole (1 mg/kg) to reverse the sedative and analgesic effects induced by the anaesthesia.
(§5) Fifteen minutes before sacrifice, animals were anesthetized with pentobarbital 60 mg/kg administrated intra-peritoneally. The brain (without cerebellum) and a fragment of liver were collected into plastic vials containing membrane buffer (3 mM MgCl2, 1 mM EDTA, 50 mM Tris HCl, pH 7.4). Glass beads (2.5 mm BioSpec Products, Bartlesville, Okla., USA) were added to the vials containing the brain and liver tissues. Tissues were stored at −20° C. until analysis.
(§6) Anandamide [ethanolamine-1-^3H-] was obtained from American Radiochemicals—with a specific activity of 60 Ci/mmol. All other reagents were obtained from Sigma-Aldrich. Optiphase Supermix was obtained from Perkin Elmer.
(§7) Brain and liver tissues were thawed and homogenized in 10 volumes of membrane buffer (3 mM MgCl2, 1 mM EDTA, 50 mM Tris HCl, pH 7.4) with homogenizer Precellys 24 Dual Tissue Homogenizer (Bertin Technologies) for 2 cycles of 5 sec (5000 rpm).
(§8) Total protein in the tissue homogenates was determined with the BioRad Protein Assay (BioRad) using a standard curve of BSA ([…]). Tissue homogenates were diluted to appropriate concentration for enzymatic determination in assay buffer (1 mM EDTA, 10 mM Tris HCl, pH 7.6).
(§9) Reaction mix (total volume 200 μL) contained 2 μM AEA (2 μM AEA+5 nM ^3H-AEA), 0.1% fatty acid free BSA, 15 μg (brain) or 5 μg (liver) protein, in assay buffer (1 mM EDTA, 10 mM Tris pH 7.6).
(§10) The test compound was used at a level of 1 mg/kg protein. After 15 minutes pre-incubation at 37° C. of the protein sample, reaction was started by the addition of the substrate solution (cold AEA+radiolabelled AEA+BSA). Reaction was carried out for 12 minutes for brain and liver tissues. Reaction was terminated by addition of 400 μL chloroform:methanol (1:1, v/v) solution. Reaction samples were vortex twice, left on ice for 5 minutes and then centrifuged in the microfuge for 7 minutes, 7000 rpm. 200 μL of the obtained supernatants were added to […] Optiphase Supermix scintillation cocktail previously distributed in 24-well plates.
(§11) Counts per minute (cpm) were determined in a Microbeta TriLux scintillation counter. In each assay blank samples (without protein) were prepared.

[2] = molecular target: T1, FAAH; experiment: In vitro/ex vivo FAAH activity determination in brain after intra-tracheal instillation; design: Liver and brain fragments were removed and processed for enzymatic activity determination; from tissue; species or system male NMRI mice; conditions: remaining enzymatic activity vs controls, 1 mg/kg intra-tracheal instillation, sacrificed after 8 h
Method: as §1, §2, §3, §4, §5, §6, §7, §8, §9, §10, §11

[3] = tested on: CYPs; experiment: CYPs metabolic stability assay in HLM (human liver microsomes); format: in vitro ADME; conditions: HLM 1 mg/ml protein, compound 5 μM, 60 min, 37° C.; for Control (% remain): absence of NADPH; for CYP+ (% remain): with NADPH 1 mM
Method: Stability of the test compounds was performed in HLM (human liver microsomes) in the presence and in the absence of NADPH.
The stability was measured using the incubation mixture (100 μl total volume) contained 1 mg/ml total protein, MgCl2 5 mM and 50 mM K-phosphate buffer. Samples were incubated in the presence and in the absence of NADPH 1 mM. Reactions were pre-incubated 5 min and the reaction initiated with the compound under test (at a concentration of 5 μM). Samples were incubated for 60 min in a shaking water bath at 37° C. The reaction was stopped by adding 100 μl of acetonitrile. Samples were then centrifuged, filtered and supematant injected in HLPC-MSD. Test compounds were dissolved in DMSO and the final concentration of DMSO in the reaction was below 0.5% (v/v). At T0 acetonitrile was added before adding the compound. All experiments were performed with samples in duplicate.

| Compound | FAAH Activity - Liver itc (% C) [1] [% C] | FAAH Activity - Brain itc (% C) [2] [% C] | Control (% remain) [3] [% remain] | CYP+ (% remain) [3] [% remain] | other results |
| --- | --- | --- | --- | --- | --- |
| CN(C(=O)n1cnc(-c2cccc(NS(C)(=O)=O)c2)c1)C1CCN(Cc2ccccc2)CC1 [Example 1, N-(1-benzylpiperidin-4-yl)-N-methyl-4-(3-(methylsulfonamido)phenyl)-1H-imidazole-1-carboxamide hydrochloride] | 3.2 | 79.0 | 111.4 | 30.2 |  |
| CN(C(=O)n1cnc(-c2cccc(NS(N)(=O)=O)c2)c1)C1CCN(Cc2ccccc2)CC1 [Example 2, N-(1-benzylpiperidin-4-yl)-N-methyl-4-(3-(sulfamoylamino)phenyl)-1H-imidazole-1-carboxamide hydrochloride] | 5.1 | 86.8 | 98.3 | 68.6 |  |
| COc1cccc(CN2CCC(N(C)C(=O)n3cnc(-c4cccc(NS(C)(=O)=O)c4)c3)CC2)c1 [Example 4, N-(1-(3-methoxybenzyl)piperidin-4-yl)-N-methyl-4-(3-(methylsulfonamido)phenyl)-1H-imidazole-1-carboxamide hydrochloride] | 7.2 | 98.7 | 100 | 11.2 |  |
| COc1ccc(CN2CCC(N(C)C(=O)n3cnc(-c4cccc(NS(C)(=O)=O)c4)c3)CC2)cc1OC [Example 5, N-(1-(3,4-dimethoxybenzyl)piperidin-4-yl)-N-methyl-4-(3-(methylsulfonamido)phenyl)-1H-imidazole-1-carboxamide hydrochloride] | 5.7 | 104.7 | 100 | 77.3 |  |
| CN(C(=O)n1cnc(-c2cccc(OS(N)(=O)=O)c2)c1)C1CCN(c2ccccc2)CC1 [Example 6, 3-(1-(methyl(1-phenylpiperidin-4-yl)carbamoyl)-1H-imidazol-4-yl)phenyl sulfamate hydrochloride] | 1.7 | 82.1 | 88.7 | 12.0 |  |
| CN(C(=O)n1cnc(-c2cccc(OS(N)(=O)=O)c2)c1)C1CCN(Cc2ccccc2)CC1 [Example 7, 3-(1-((1-benzylpiperidin-4-yl)(methyl)carbamoyl)-1H-imidazol-4-yl)phenyl sulfamate hydrochloride] | 3.5 | 87.2 | 92.6 | 65.0 |  |
| COc1cc(CN2CCC(N(C)C(=O)n3cnc(-c4ccc(OS(N)(=O)=O)cc4)c3)CC2)cc(OC)c1 [Example 8, 4-(1-((1-(3,5-dimethoxybenzyl)piperidin-4-yl)(methyl)carbamoyl)-1H-imidazol-4-yl)phenyl sulfamate hydrochloride] |  |  |  |  | FAAH Activity - Liver itc (% C) ([1]; hydrochloride, 1 mg/kg): 5.4 % C; FAAH Activity - Brain itc (% C) ([2]; hydrochloride, 1 mg/kg): 97.6 % C; Control (% remain) ([3]; hydrochloride): 93.2 % remain; CYP+ (% remain) ([3]; hydrochloride): 25.2 % remain |
| COc1cccc(CN2CCC(N(C)C(=O)n3cnc(-c4cccc(C(N)=O)c4)c3)CC2)c1 [Example 13, 4-(3-carbamoylphenyl)-N-(1-(3-methoxybenzyl)piperidin-4-yl)-N-methyl-1H-imidazole-1-carboxamide hydrochloride] |  |  | 103.5 | 25.1 |  |
| COc1cc(CN2CCC(N(C)C(=O)n3cnc(-c4ccc(OS(N)(=O)=O)cc4)c3)CC2)cc(OC)c1 [Example 19, 4-(1-((1-(3,5-dimethoxybenzyl)piperidin-4-yl)(methyl)carbamoyl)-1H-imidazol-4-yl)phenyl sulfamate maleate] |  |  |  |  | FAAH Activity - Liver itc (% C) ([1]; maleate, 1 mg/kg): 9.2 % C; FAAH Activity - Brain itc (% C) ([2]; maleate, 1 mg/kg): 99.2 % C |
| CN(C(=O)n1cnc(-c2cccc(NC(N)=O)c2)c1)C1CCN(Cc2ccccc2)CC1 [Example 22, N-(1-benzylpiperidin-4-yl)-N-methyl-4-(3-ureidophenyl)-1H-imidazole-1-carboxamide methanesulfonate] |  |  |  |  | FAAH Activity - Liver itc (% C) ([1]; methanesulfonate, 1 mg/kg): 10.7 % C; FAAH Activity - Brain itc (% C) ([2]; methanesulfonate, 1 mg/kg): 113.8 % C |

Continued, in another order:

| FAAH Activity - Liver itc (% C) [1] [% C] | FAAH Activity - Brain itc (% C) [2] [% C] | Control (% remain) [3] [% remain] | CYP+ (% remain) [3] [% remain] | Compound | other results |
| --- | --- | --- | --- | --- | --- |
| 15.8 | 86.4 |  |  | COc1cccc(CN2CCC(N(C)C(=O)n3cnc(-c4cccc(NS(N)(=O)=O)c4)c3)CC2)c1.O=C(O)/C=C\C(=O)O.O=C(O)/C=C\C(=O)O [Example 20, N-(1-(3-methoxybenzyl)piperidin-4-yl)-N-methyl-4-(3-(sulfamoylamino)phenyl)-1H-imidazole-1-carboxamide dimaleate] |  |
| 8.6 | 94.4 |  |  | CN(C(=O)n1cnc(-c2cccc(C(N)=O)c2)c1)C1CCN(Cc2ccccc2O)CC1 [Example 36, 4-(3-carbamoylphenyl)-N-(1-(2-hydroxybenzyl)piperidin-4-yl)-N-methyl-1 H-imidazole-1-carboxamide hydrochloride] |  |
| 3.4 | 110.2 |  |  | CN(C(=O)n1cnc(-c2cccc(C(N)=O)c2)c1)C1CCN(c2ccccc2O)CC1 [Example 37, 4-(3-carbamoylphenyl)-N-(1-(2-hydroxyphenyl)piperidin-4-yl)-N-methyl-1H-imidazole-1-carboxamide hydrochloride] |  |
| 6.0 | 96.5 |  |  | COc1ccccc1CN1CCC(N(C)C(=O)n2cnc(-c3cccc(C(N)=O)c3)c2)CC1 [Example 38, 4-(3-carbamoylphenyl)-N-(1-(2-methoxybenzyl)piperidin-4-yl)-N-methyl-1H-imidazole-1-carboxamide hydrochloride] |  |
